# Source: publication PMC7380640, “Development of a brain-permeable peptide nanofiber that prevents aggregation of Alzheimer pathogenic proteins” (PLoS ONE, 2020)
# Where a SMILES comes first, the peptide text is derived from it.
# Legend:
# Aβ (1–42) = conditions: 100 nM of Aβ (1–42); cited from earlier work
# Method: The neutral αAC nanofibers suppressed aggregation of Aβ (1–42), without promoting the aggregation of 3RMBDof tau (Fig 2) and cytotoxicity of Aβ (1–42) against PC12 cells (Fig 7). Several brain-permeable low molecular weight compounds that suppress the aggregation of amyloidβ have been proposed as therapeutic drugs for AD [48–55]; unfortunately, the affinity of these compounds for Aβ tends to be low. For example, >100 nM of curcumin is required to inhibit the cytotoxicity of 100 nM of Aβ (1–42).
# [1] = system: rat pheochromocytoma (PC12); conditions: cited from earlier work
# From the text: (§1) Alzheimer’s disease (AD) is a progressive neurodegenerative disorder and the most common form of dementia characterized by senile plaque (SP), which is the extracellular deposit of amyloidβ(Aβ)aggregates,and neurofibrillary tangle, which is the intracellular accumulation of phosphorylated tau protein [3]. Although highly ordered linear Aβaggregates, known as amyloid fibrils, are the major component of SP and one of the hallmark features of AD, soluble oligomers of aggregates are regarded as more cytotoxic. The therapeutic use of peptide inhibitors of pathological ...
# Aβ peptides = conditions: cited from earlier work
# From the text: as §1
# trypsin = target: T1, trypsin (Bos taurus, UniProt P00760); experiment: Proteolytic digestion with trypsin (GPC); assay type: in vitro ADME; conditions: 200 μM peptide or nanofiber, 12 μM trypsin (type XIII, bovine pancreas), 5 mM phosphate 100 mM NaCl pH 7.5, 37°C, GPC peak of FVIFLDVK, A220
# T1 construct: purchased type XIII; host or cells: bovine pancreas
# T1 sequence (P00760 24-246): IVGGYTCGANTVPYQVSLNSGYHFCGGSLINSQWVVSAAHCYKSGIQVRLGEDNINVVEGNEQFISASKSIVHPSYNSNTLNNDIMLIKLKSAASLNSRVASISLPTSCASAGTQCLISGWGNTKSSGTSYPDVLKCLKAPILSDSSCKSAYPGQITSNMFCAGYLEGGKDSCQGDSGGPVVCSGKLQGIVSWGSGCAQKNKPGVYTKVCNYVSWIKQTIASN
# Method: The αAC peptides or the neutralαAC nanofiber (200 μM) were incubated with trypsin (12 μM, type XIII from bovine pancreas) in 5 mM phosphate buffer containing 100 mM NaCl (pH 7.5) at 37°C. The molecular mass of the digested peptides were analyzed with MALDI-TOF mass spectroscopy using a BrukerAutoflex Speed instrument. The proteolyzed sample of αAC nanofibers was centrifuged (10,000g for 5 min) to separate the peptide fragments from the nanofibers. The apparent rate of proteolysis of αAC(71–88) was estimated from gel permeation chromatography analysis using a Superdex^TMpeptide 10/300 GL column (GE Healthcare, Piscataway, NJ). Water including 30% acetonitrile and 0.1% TFA was used as the elution solvent.
compound,measurement,setting,value
COc1cc(/C=C/C(=O)CC(=O)/C=C/c2ccc(O)c(OC)c2)ccc1O [curcumin],concentration required to inhibit the cytotoxicity of Aβ (1–42),Aβ (1–42),> 100 nM
"DFVIFLDVKHFSPEDLTVK [CPP-fused αAC peptides, cell-penetrating peptide-fused type peptides of the αA-crystallin peptide]",effect on Aβ toxicity,[1],suppress Aβ toxicity
same,effect on Aβ fibril formation,Aβ peptides,prevented Aβ fibril formation
CC[C@H](C)[C@H](NC(=O)[C@@H](NC(=O)[C@@H](N)Cc1ccccc1)C(C)C)C(=O)N[C@@H](Cc1ccccc1)C(=O)N[C@@H](CC(C)C)C(=O)N[C@@H](CC(=O)O)C(=O)N[C@H](C(=O)N[C@@H](CCCCN)C(=O)N[C@@H](Cc1c[nH]cn1)C(=O)N[C@@H](Cc1ccccc1)C(=O)N[C@@H](CO)C(=O)N1CCC[C@H]1C(=O)N[C@@H](CCC(=O)O)C(=O)N[C@@H](CC(=O)O)C(=O)N[C@@H](CC(C)C)C(=O)N[C@H](C(=O)N[C@H](C(=O)N[C@@H](CCCCN)C(=O)O)C(C)C)[C@@H](C)O)C(C)C [αAC(71–88)] (H-FVIFLDVKHFSPEDLTVK-OH),fraction of αAC(71–88) digested (single cleavage) after 24 h proteolysis,trypsin,ca. 90%
DFVIFLDVKHFSPEDLTVK,effect on toxicity of Aβ in PC12,[1]; rat pheochromocytoma (PC12),suppress the toxicity
same,effect on fibril formation of Aβ peptides,Aβ peptides,inhibit fibril formation
